In this data set the test system is adults with OSA and excessive sleepiness. Nature of the data set: Safety and tolerability (TEAEs), phase 3 randomized withdrawal study in OSA. The class given is in vivo, human. The procedure: The study was a double-blind, placebo-controlled, enriched, randomized withdrawal design (FIG. 1). In the Titration Phase (weeks 1-2), patients started on a once-daily dose of APC 75 mg and could be titrated up or down every 3 days to reach a maximum tolerated dose of APC 75, 150, or 300 mg. In the Stable-Dose Phase (weeks 3-4), patients continued to receive the dose that they were titrated to in the Titration Phase for 2 weeks. In the Double-Blind Withdrawal Phase (weeks 5-6), patients who reported “much” or “very much” improvement on the Patient Global Impression of Change (PGI-C) scale (Guy W. ECDEU assessment manual for psychopharmacology, revised. US Department of Health, Education, and Welfare publication (ADM 76-338). Rockville, MD: National Institute of Mental Health; 1976), and who had improved on the Maintenance of Wakefulness Test (MWT) and Epworth Sleepiness Scale (ESS) (Johns, Sleep 14(6):540 (1991)) at week 4 were randomized 1:1 to receive the same current dose of JZP-110 or placebo for 2 weeks.
MWT and ESS data were analyzed using a mixed-effect model repeated measures (MMRM); PGI-C and CGI-C were evaluated using a chi-square test. […] Safety and tolerability were evaluated based on treatment-emergent adverse events (TEAEs), vital signs, and laboratory values.

The mark [1] stands for this setting: Randomized Withdrawal Phase, all JZP-110 doses (n = 62).
The mark [2] stands for this setting: Stable-Dose Phase, all JZP-110 doses (n = 157).

From patent US11865098B1, “Methods and compositions for treating excessive sleepiness” (Axsome Malta Ltd., priority 2017, dated 2024) come the findings set out here.

Turning to `NC(=O)OC[C@H](N)Cc1ccccc1` [JZP-110, (R)-2-amino-3-phenylpropyl carbamate], under setting [1], the “Any TEAE, incidence” value is on record as “ρ 18 (29.0) n (%)”; the “Aphthous stomatitis, incidence” value is recorded as “ρ 1 (1.6) n (%)”; the “Cough, incidence” value was “ρ 1 (1.6) n (%)”; the “Nasopharyngitis, incidence” value is “ρ 3 (4.8) n (%)”. Moreover, under setting [1], the “Serious TEAEs, incidence” value is given as “ρ 0 n (%)”; the “TEAEs leading to withdrawal, incidence” value is “ρ 0 n (%)”; the “Upper respiratory tract infection, incidence” value is listed as “ρ 1 (1.6) n (%)”. Under setting [2], the “Diarrhea, incidence” value is “ρ 0 n”; the “Dyspepsia, incidence” value was “ρ 0 n”; the “Serious TEAE, incidence” value is reported as “ρ 0 n”; the “TEAE leading to withdrawal, incidence” value is recorded as “ρ 0 n”. Moreover, the “Any TEAE, incidence” value (Stable-Dose Phase, all JZP-110 doses (n = 157), listed as APC) is 10.2%. Moreover, the “Serious TEAE, incidence” value (Titration Phase, all JZP-110 doses (n = 174)) is reported as “ρ 0 n”. For the same compound, the “Any TEAE, incidence” value (Titration Phase, all JZP-110 doses (n = 174), listed as APC) amounted to 48.9%. Moreover, the “Rebound hypersomnia or withdrawal effects after abrupt discontinuation” value (placebo group in the Randomized Withdrawal Phase) is “no evidence of rebound hypersomnia or withdrawal effects”. Moreover, the “Serious TEAEs in the study” value (whole study) is “no serious TEAEs”.
